Reference: patent US8217022B2, “Analogues of 1,3-bis(4-nitrophenyl)triazenes, their pharmaceutically acceptable salts and N-acyl derivatives for tumour treatment” (Rudjer Boskovic Institute, priority 2009, dated 2012)
Read-outs that look alike come from different tables or passages of the source.

Assays:
[1] = tested on: human ovarian adenocarcinoma OVCAR cells; test: Cytotoxicity by MTT method on OVCAR cells; type: cell-based; details: Table 2
[2] = tested on: CA3 cells resistant to cisplatin and cross-resistant to vincristine, methotrexate and mitomycin C; test: Cytotoxicity by MTT method on CA3 resistant sub-line; type: cell-based; details: Table 3
[3] = tested on: glioblastoma A1235 cells; test: Cytotoxicity by MTT method on A1235 cells; type: cell-based; details: Table 2
[4] = tested on: normal human cells, keratinocytes; test: Cytotoxicity on keratinocytes, survival by crystal violet dye; type: cell-based; details: Table 2
Experimental: (§1) The human cervical carcinoma HeLa cells were used as a model for testing the cytotoxicity of new compounds. Said cells grow as single-layer culture in nutrient Dulbecco's modified Eagle's medium (DMEM, Gibco Life Technologies, Grand Island, USA) with 10% of fetal bovine serum (Gibco) and antibiotics (penicillin 100 U, streptomicine 0.1 mg, Sigma Chem. Co., St. Louis, USA). They were grown in thermostat at 37° C. with 5% CO2 in a humidified atmosphere in plastic cell culture flasks (BD Falcon, Germany).
The compounds were dissolved in dimethyl sulfoxide (Merck, Darmstadt, Germany) in concentrations of 20-120 mM (depending on the compound) and stored in aliquots at −20° C. as stock solutions. […]
Cells were seeded in 96-well microtitration plates (BD Falcon) (2.5×10^3/180 μl), and incubated overnight at temperature of 37° C. to allow the cells to attach to the growth medium. […] Formed crystals were dissolved in dimethyl sulfoxide and the absorbance of each sample was measured at 545 nm. The survival of cells was calculated according to the formula: […]
(§2) The experiments were repeated 2-3 times. […] IC50 values were read from the curve. […]
The cytotoxicity was determined by spectrophotometric MTT method (except for keratinocytes, which have low metabolic activity, so their survival was determined by addition of crystal violet dye) and expressed as IC50.

[5] = tested on: laryngeal carcinoma HEp-2 cells; test: Cytotoxicity by MTT method on HEp-2 cells; type: cell-based
[6] = tested on: human embryonic kidney HEK 293 cells; test: Cytotoxicity by MTT method on HEK 293 cells; type: cell-based; details: HEK 293, MTT; Table 2
[7] = tested on: rhabdomiosarcoma RD cells; test: Cytotoxicity by MTT method on RD cells; type: cell-based; details: Table 2
[8] = tested on: human cervical carcinoma HeLa cells; test: Cytotoxicity by spectrophotometric MTT method on HeLa cells; type: cell-based; details: for IC50: MTT
Experimental: as §1
The compounds were dissolved in dimethyl sulfoxide (Merck, Darmstadt, Germany) in concentrations of 20-120 mM (depending on the compound) and stored in aliquots at −20° C. as stock solutions. The stock solutions were diluted to the appropriate concentrations just before the experiments.
(§3) The cytotoxicity of new compounds was determined by spectrophotometric MTT method (Michisch et al., Urol Res 18(990)131). It is a colorimetric method based on the ability of living cells to reduce the yellow tetrazolium salt 3-(4,5-dimethylthiazol-2-yl)-2,5-diphenyltetrazolium bromide) (MTT; Merck) to violet formazane crystals using mitochondrial dehydrogenase and cytochrome b and c. The crystals were dissolved in dimethyl sulfoxide (DMSO), followed by spectrophotometric measurement of their absorbance at 545 nm.
(§4) Cells were seeded in 96-well microtitration plates (BD Falcon) (2.5×10^3/180 μl), and incubated overnight at temperature of 37° C. to allow the cells to attach to the growth medium. Next day the compounds were added to the growth medium in a wide range of concentrations, from 0.05 to 100 μM (each concentration in quadruplicate). After 72 hours, the samples were coloured with the MTT dye and left for 3 hours in the thermostat. Formed crystals were dissolved in dimethyl sulfoxide and the absorbance of each sample was measured at 545 nm. The survival of cells was calculated according to the formula: […]
The experiments were repeated 2-3 times. […] IC50 values were read from the curve. IC50 is the concentration of a compound that reduces the survival of treated cells to 50%.
The cytotoxicity of the new compounds was determined on human cervical carcinoma HeLa cells by the spectrophotometric MTT method. It is expressed as IC50 value, i.e. as the concentration of a compound that reduces cell survival to 50%.

[9] = tested on: HeLa CK cells resistant to cisplatin and cross-resistant to vincristine and methotrexate; test: Cytotoxicity by MTT method on HeLa CK resistant sub-line; type: cell-based, human; details: Table 3
Experimental: as §3
as §4, with “After 72 hours, the samples were coloured with the MTT dye and left for 3 hours in the thermostat.” left out
as §2
It was tested on parental cervical carcinoma HeLa cells and their sub-line HeLa CK cells resistant to cisplatin and cross-resistant to vincristine and methotrexate (Osmak and Eljuga, Res Exp Med 193(1993) 389). […] Cytotoxicity was determined by spectrophotometric MTT method and expressed as IC50.

[10] = tested on: mammalian cells; details: from publication, read-out: cytotoxicity IC50; cited from earlier work
[11] = HeLa cells, 72 hours, Table 1, read-out: Cytotoxicity (IC50 μM)

With `O=[N+]([O-])c1ccc(N=NNc2ccc([N+](=O)[O-])cc2Br)c(Br)c1` [VM-94c] the IC50 [1] was 3.4 µM, the IC50 [2] was 7.2 µM and the IC50 [3] was 5.45 µM. The IC50 [4] was 9.45 µM, the IC50 ([5]; HEp2 parental cells, MTT, Table 3) was 5.5 µM and the IC50 ([5]; HEp-2, MTT, Table 2) was 5.5 µM. For the same compound, the IC50 [6] was 7.9 µM, the IC50 [7] was 5.1 µM and the IC50 ([8]; HeLa cells, 72 hours, Table 1, listed as VM 94c, read-out: Cytotoxicity (IC50 μM)) was 3.65 µM. It also gave an IC50 ([8]; HeLa parental cells, Table 3, read-out: IC50) of 3.4 µM, an IC50 ([8]; HeLa, Table 2, read-out: IC50) of 3.65 µM and an IC50 [9] of 3.9 µM.

For `O=[N+]([O-])c1ccc(N=NNc2ccc([N+](=O)[O-])cc2Cl)c(Cl)c1` [VM-102], the IC50 [8, 11] was 2.6 µM.

For `N=C(N)c1ccc(N=NNc2ccc(C(=N)N)cc2)cc1` [berenil, Berenil], the IC50 [10] is listed as over 100 µM.

Work on `O=[N+]([O-])c1ccc(N=NNc2ccc([N+](=O)[O-])cc2Br)c(Br)c1` [VM-97] yielded an IC50 [8, 11] of 0.45 µM.

With `O=[N+]([O-])c1ccc(N=NNc2ccc([N+](=O)[O-])cc2)cc1` [1,3-bis(4-nitrophenyl)triazene] the biological activity ([8]; tested during the testing of the compounds of the invention) was “did not show any biological activity”.
